Experimental data taken from patent publication US10087209B2, “Antiviral compounds, a process for their preparation, and their use for treating viral infections” (KU LEUVEN RESEARCH & DEVELOPMENT, priority 2015, dated 2018).
pEC50, pIC50: −log10 of the molar value. Counter-ions that a name gives are not always drawn.

Tests used:
[1] = test system: HBV wild-type strain ayw1 in HepG2 2.2.15 cells; test: Primary anti-HBV assay: extracellular HBV DNA copy number by real-time qPCR (TaqMan); assay type: cell-based, Hepatitis B virus
Description: (§1) The primary anti-HBV assay is performed as previously described (Korba, B F and Milman, G. A cell culture assay for compound which inhibit hepatitis B virus replication. Antiviral Res. 1991, 15, 217-228; and Korba, B F and Gerin, J L. Use of a standardized cell culture assay to assess activities of nucleoside analogs again hepatitis B virus replication. Antiviral Res. 1992, 19, 55-70) with modifications to use real-time qPCR (TaqMan) to measure extracellular HBV DNA copy number associated with virions released from HepG2 2.2.15 cells. The HepG2 2.2.15 cell line is a stable human hepatoblastoma cell line that contains two copies of the HBV wild-type strain ayw1 genome and constitutively produces high levels of HBV. Antiviral compounds blocking any late step of viral replication such as transcription, translation, pregenome encapsidation, reverse transcription, particle assembly and release can be identified and characterized using this cell line.
(§2) Briefly, HepG2 2.2.15 cells are plated in 96-well microtiter plates at 1.5×10^4 cells/well in Dulbecco's Modified Eagle's Medium supplemented with 2% FBS, 380 μg/mL G418, 2.0 mM L-Glutamine, 100 units/mL Penicillin, 100 μg/mL Streptomycin, and 0.1 mM non-essential amino acids. Only the interior wells are utilized to reduce “edge effects” observed during cell culture; the exterior wells are filled with complete medium to help minimize sample evaporation. After 16-24 hours the confluent monolayer of HepG2 2.2.15 cells is washed and the medium is replaced with complete medium containing various concentrations of a test compound in triplicate Lamivudine (3TC) is used as the positive control, while media alone is added to cells as a negative control (virus control, VC). Three days later the culture medium is replaced with fresh medium containing the appropriately diluted test compounds. Six days following the initial administration of the test compound, the cell culture supernatant is collected, treated with pronase and then used in a real-time quantitative TaqMan qPCR assay. The PCR-amplified HBV DNA is detected in real-time by monitoring increases in fluorescent signal that result from the exonucleolytic degradation of a quenched fluorescent probe molecule that hybridizes to the amplified HBV DNA. For each PCR amplification, a standard curve is simultaneously generated using dilutions of purified HBV DNA. Antiviral activity is calculated from the reduction in HBV DNA levels (EC50 & EC90 values determined). A tetrazolium dye (MTS; 3-(4,5-dimethylthiazol-2-yl)-5-(3-carboxy-methoxyphenyl)-2-(4-sulfophenyl)-2H-tetrazolium; CellTiter®96 Reagent, Promega) uptake assay is then employed to measure cell viability, which is used to calculate toxicity (CC50). The Selectivity Index (SI50) is calculated as CC50/IC50.

HIV-2 = settings: cited from earlier work
[2] = read-out: CC50 (cellular cytotoxicity); cited from earlier work
HIV-1 = settings: cited from earlier work
[3] = MTS tetrazolium dye uptake cell viability assay (primary assay); assay type: cell-based, human; settings: human, HepG2 2.2.15 cells
Description: as §2

[4] = test system: HBV wild-type strain ayw1 in HepG2 2.2.15 cells; test: microbe, parasite or virus in culture; assay type: cell-based; settings: Hepatitis B virus
Description: as §1
Briefly, HepG2 2.2.15 cells are plated in 96-well microtiter plates at 1.5×10^4 cells/well in Dulbecco's Modified Eagle's Medium supplemented with 2% FBS, 380 μg/mL G418, 2.0 mM L-Glutamine, 100 units/mL Penicillin, 100 μg/mL Streptomycin, and 0.1 mM non-essential amino acids. Only the interior wells are utilized to reduce “edge effects” observed during cell culture; the exterior wells are filled with complete medium to help minimize sample evaporation. After 16-24 hours the confluent monolayer of HepG2 2.2.15 cells is washed and the medium is replaced with complete medium containing various concentrations of a test compound in triplicate Lamivudine (3TC) is used as the positive control, while media alone is added to cells as a negative control (virus control, VC). Three days later the culture medium is replaced with fresh medium containing the appropriately diluted test compounds. Six days following the initial administration of the test compound, the cell culture supernatant is collected, treated with pronase and then used in a real-time quantitative TaqMan qPCR assay. The PCR-amplified HBV DNA is detected in real-time by monitoring increases in fluorescent signal that result from the exonucleolytic degradation of a quenched fluorescent probe molecule that hybridizes to the amplified HBV DNA. For each PCR amplification, a standard curve is simultaneously generated using dilutions of purified HBV DNA. Antiviral activity is calculated from the reduction in HBV DNA levels (EC50 & EC90 values determined). A tetrazolium dye (MTS; 3-(4,5-dimethylthiazol-2-yl)-5-(3-carboxy-methoxyphenyl)-2-(4-sulfophenyl)-2H-tetrazolium; CellTiter®96 Reagent, Promega) uptake assay is then employed to measure cell viability, which is used to calculate toxicity (CC50). The Selectivity Index (SI50) is calculated as CC50/IC50. […]

HepG2 2.2.15 cells = test: MTS tetrazolium dye uptake cell viability assay (primary assay); assay type: cell-based, human
Description: as §2

in vitro = assay type: cell-based; settings: human; HepG2 2.2.15 cells, secondary assay
Description: Briefly, HepG2 2.2.15 cells are plated in 96-well microtiter plates at 1.5×10^4 cells/well in Dulbecco's Modified Eagle's Medium supplemented with 2% FBS, 380 μg/mL G418, 2.0 mM L-Glutamine, 100 units/mL Penicillin, 100 μg/mL Streptomycin, and 0.1 mM non-essential amino acids. Only the interior wells are utilized to reduce “edge effects” observed during cell culture; the exterior wells are filled with complete medium to help minimize sample evaporation. After 16-24 hours the confluent monolayer of HepG2 2.2.15 cells is washed and the medium is replaced with complete medium containing various concentrations of a test compound in triplicate Lamivudine (3TC) is used as the positive control, while media alone is added to cells as a negative control (virus control, VC). […] Six days following the initial administration of the test compound, the cell culture supernatant is collected, treated with pronase and then used in a real-time quantitative TaqMan qPCR assay. The PCR-amplified HBV DNA is detected in real-time by monitoring increases in fluorescent signal that result from the exonucleolytic degradation of a quenched fluorescent probe molecule that hybridizes to the amplified HBV DNA. […] Antiviral activity is calculated from the reduction in HBV DNA levels (EC50 & EC90 values determined). […] The Selectivity Index (SI50) is calculated as CC50/IC50. […]

[5] = Hepatitis B virus, 144 h, reduction in extracellular HBV DNA, HepG2 2.2.15 cells, six days, read-out: EC50
[6] = Hepatitis B virus, 144 h, reduction in extracellular HBV DNA, HepG2 2.2.15 cells, six days, read-out: EC90
[7] = Hepatitis B virus, HepG2 2.2.15, 144 h

| SMILES | pEC50 [1, 5] | EC90 [1, 6] [µM] | CC50 at 6 days [3] [µM] | pEC50 [1, 7] | EC90 [1, 7] [µM] | also measured |
| --- | --- | --- | --- | --- | --- | --- |
| Cc1cn([C@H]2C[C@@H](OCP(=O)(O)O)CO2)c(=O)[nH]c1=O [PMDTT, 1′α-(Thymin-1-yl)-2′-deoxy-3′-O-phosphonomethyl-L-threose triethylammonium salt, reference compound] | 4.40 | > 100 | > 100 |  |  | pIC50 (HIV-2; read-out: IC50 value against HIV-2): 5.18; CC50 [2]: > 343 µM; pIC50 (HIV-1; read-out: IC50 value against HIV-1): 5.18 |
| Nc1ncnc2c1ncn2[C@H]1C[C@@H](OCP(=O)(O)O)CO1 [PMDTA, 1′α-(Adenin-9-yl)-2′-deoxy-3′-O-phosphonomethyl-L-threose triethylammonium salt, reference compound] | 6.30 | > 100 | > 100 |  |  | pEC50 (HIV-2; read-out: EC50 value against HIV-2): 5.60; CC50 [2]: > 316 µM; pEC50 (HIV-1; read-out: EC50 value against HIV-1): 5.60 |
| Nc1ccn([C@@H]2CS[C@H](CO)O2)c(=O)n1 [3TC (Lamivudine), Lamivudine, reference compound] | 7.52 | > 2 | > 2 |  |  | pEC50 ([4]; reduction in intracellular HBV DNA, HepG2 2.2.15 cells, read-out: EC50): > 8.00; EC90 ([4]; reduction in intracellular HBV DNA, HepG2 2.2.15 cells, read-out: EC90): > 2 µM |
| CC(C)OC(=O)[C@H](C)NP(=O)(COC1COC(n2cnc3c(=O)[nH]c(N)nc32)C1)Oc1ccccc1 (stereo partly drawn) [compound 41, 1′α-(Guanin-9-yl)-2′-deoxy-3′-O—{[N-(isopropyl-L-alaninate)](phenoxy)-methylphosphonoamidate}-L-threose] |  |  |  |  |  | pEC50 ([1]; reduction in extracellular HBV DNA, HepG2 2.2.15 cells, six days, read-out: EC50): < 4.00; EC90 ([1]; reduction in extracellular HBV DNA, HepG2 2.2.15 cells, six days, read-out: EC90): > 100 µM; CC50 (HepG2 2.2.15 cells): > 100 µM |
| CC(C)OC(=O)[C@H](C)NP(=O)(CO[C@H]1CO[C@@H](n2cnc3c(N)ncnc32)C1)Oc1ccccc1 (some centres unmarked) [compound 17] |  |  | > 10 | 7.52 | > 10 |  |
| Cc1cn([C@H]2C[C@@H](OCP(=O)(N[C@@H](CC(=O)OCCC(C)C)C(=O)OCCC(C)C)Oc3ccccc3)CO2)c(=O)[nH]c1=O (some centres unmarked) [compound 21] |  |  | 59.6 | 6.60 | > 10 |  |
| CC(C)OC(=O)[C@H](C)NP(=O)(CO[C@H]1CO[C@@H](n2cnc3c(=O)[nH]c(N)nc32)C1)Oc1ccccc1 (some centres unmarked) [compound 40] |  |  | > 100 | < 4.00 | > 100 |  |
| Cc1cn([C@H]2C[C@@H](OCP(=O)(N[C@@H](C)C(=O)OC(C)C)Oc3ccccc3)CO2)c(=O)[nH]c1=O (some centres unmarked) [compound 20] |  |  | > 100 | 6.59 | > 10 |  |
| CC(C)OC(=O)[C@H](C)NP(=O)(CO[C@H]1CO[C@@H](n2ccc(N)nc2=O)C1)Oc1ccccc1 (stereo partly drawn) [compound 32, 1′α-(Cytosin-1-yl)-2′-deoxy-3′-O—{[N-(isopropyl-L-alaninate)](phenoxy)-methylphosphonoamidate}-L-threose] |  |  | > 100 | 4.32 | > 100 |  |
| CC(C)CCOC(=O)C[C@H](NP(=O)(CO[C@H]1CO[C@@H](n2cnc3c(N)ncnc32)C1)Oc1ccccc1)C(=O)OCCC(C)C (some centres unmarked) [compound 18] |  |  | 55.5 | 8.00 | 0.98 | CC50 at 6 days (in vitro): 35.2 µM; pEC50 ([4]; HepG2 2.2.15): > 8.00; EC90 ([4]; HepG2 2.2.15): 0.36 µM |
| CCCOC(=O)[C@H](Cc1ccccc1)NP(=O)(CO[C@H]1CO[C@@H](n2cnc3c(=O)[nH]c(N)nc32)C1)N[C@@H](Cc1ccccc1)C(=O)OCCC [compound 39] | < 4.00 | > 100 | > 100 |  |  |  |
